From patent publication US20180113115A1, “SCREENING ASSAYS BASED ON MAG AND/OR ABHD6 FOR SELECTING INSULIN SECRETION PROMOTING AGENT” (VAL-CHUM, LIMITED PARTNERSHIP, priority 2010, published 2018)
Entries after “also recorded” stand apart in the source; their conditions may differ.

Experiments:
[1] = system: INS 832/13 cells; assay: Insulin secretion measurement in INS 832/13 cells (static incubation); type: cell-based; settings: for glucose-stimulated insulin secretion (GSIS): increasing glucose (5 and 10 mM), 10 μM WWL70, 50 μM orlistat, 1 μM JZL184; for KCl-stimulated insulin secretion: 35 mM KCl; for KCl-stimulated insulin secretion / insulin secretion stimulated by leucine+glutamine: 1 mM glucose, 10 μM WWL70 or 10 μM AMG9810; for insulin secretion stimulated by leucine+glutamine: Gln+Leu 5 mM each
Protocol: (§1) INS 832/13 cells (Hohmeir et al.) were cultured at 37° C. in a humidified atmosphere containing 5% CO2 in RPMI 1640 with sodium bicarbonate, supplemented with 10% (v/v) fetal calf serum (Wisent), 10 mM HEPES, pH 7.4, 2 mM L-glutamine, 1 mM sodium pyruvate and 50 μM β-mercaptoethanol (complete RPMI). Cells were grown to 80% confluence. Media were changed to RPMI 1640 containing 3 mM glucose supplemented as the complete RPMI 24 h prior to the experiments. Insulin secretion incubations were conducted in Krebs-Ringer bicarbonate buffer containing 10 mM HEPES, pH 7.4 (KRBH).
INS 832/13 cells were washed in KRBH containing 1 mM glucose and 0.5% defatted BSA (KRBH 1G/0.5% BSA) and pre-incubated for 45 min in KRBH 1G/0.5% BSA in presence of pharmacological agents (at indicated concentrations) or vehicle (DMSO). […] When examining the effect of 2-AG, it was added to cells at 0 to 1 μM concentration at 2 mM and 10 mM glucose. Insulin secretion from INS 832/13 cells was measured from either 45-min or 2-h static incubations in KRBH containing various glucose concentrations, 0.5% defatted BSA and pharmacological agents or vehicle, with or without 35 mM KCl or 0.3 mM palmitate, as specified.

[2] = system: INS 832/13 cells; assay: Effect of lipase inhibitors on [U-14C]-glucose incorporation into lipids; type: cell-based; settings: for release of [U14C]-free fatty acids (FFA) / glucose incorporation into 1-monoacylglycerol (1-MAG) / glucose incorporation into 2-monoacylglycerol (2-MAG) / glucose incorporation into diacylglycerol (DAG) / glucose incorporation into triglycerides (TG) / glucose incorporation into phospholipids: 1 and 10 mM [U14C]-glucose, 50 μM orlistat; for release of [U14C]-free fatty acids (FFA): 1 μM JZL184; for glucose incorporation into 1-monoacylglycerol (1-MAG) / glucose incorporation into 2-monoacylglycerol (2-MAG) / glucose incorporation into diacylglycerol (DAG) / glucose incorporation into triglycerides (TG): 10 μM WWL70, 1 μM JZL184
Protocol: as §1
INS 832/13 cells were incubated overnight at 11 mM [U-^14C]-glucose in RPMI medium in a CO2-incubator in order to pre-label all the lipids in the cells. Then the cells were washed in KRBH (1 mM [U-^14C]-glucose) and pre-incubated for 45 min in KRBH at 1 mM [U-^14C]-glucose to bring metabolism to basal level. After this, cells were further incubated for 2 h in KRBH at 1 and 10 mM [U-^14C]-glucose and the indicated inhibitors. […] Then the cells were washed rapidly and flash-frozen in liquid nitrogen and extracted for lipids. Lipids were separated by TLC and the associated radioactivity was quantified. Neutral lipids were separated on boric acid/silica gel-TLC, with two solvent systems, first petroleum ether: diethyl ether: acetic acid (70:30:1), followed by second solvent system up to half of the plates, chloroform: acetone: acetic acid (60:40:1). Phospholipids were separated with a solvent system, chloroform: methanol: water (65:25:4).

[3] = system: MAG lipase (MAGL); settings: cited from earlier work
[4] = biological target: TRPV1-R (Homo sapiens, UniProt Q8NER1); settings: both in vitro and in vivo; cited from earlier work
[5] = system: TRPV1-R; settings: cited from earlier work
[6] = system: β-cell; settings: inhibition of β-cell plasma membrane DAG lipase activity; cited from earlier work
[7] = system: rat intact islets; assay: GSIS in isolated intact rat islets; type: cell-based
From the text: (§2) All procedures were approved by the Institutional Committee for the Protection of Animals at the Centre Hospitalier de l'Université de Montreal Research Center. Wistar rats or […] mice or CD1 mice (all male) from Charles River (St-Constant, QC, Canada) were anaesthetized with Somnotol® (MTC Pharmaceuticals, Canada) and sacrificed by exsanguination. Pancreatic islets were isolated by collagenase (type XI from Sigma) digestion of total pancreas (Gotoh et al.), followed by separation (centrifugation at 1040×g) on a Histopaque™ 1119, 1077 (Sigma) gradient. Isolated islets were handpicked and cultured overnight in a petri dish at 37° C. in a humidified atmosphere containing 5% CO2 in RPMI 1640 with sodium bicarbonate, supplemented with 10% fetal calf serum, 10 mM HEPES pH 7.4, 2 mM L-glutamine, 1 mM sodium pyruvate, 100 U/mL penicillin and 100 μg/mL streptomycin.
(§3) For insulin secretion from rat, mouse or human islets, batches of 10 islets were washed in KRBH containing 2.8 mM glucose and 0.5% defatted BSA, and pre-incubated for 45 min in KRBH containing 2.8 mM glucose, 0.5% defatted BSA and different pharmacological agents (at indicated concentrations) or DMSO. […] Total insulin contents and media insulin concentrations were determined by radioimmunoassay using human insulin standards (Linco Research, Mo.).

[8] = system: dispersed rat islet cells; assay: GSIS in dispersed rat islet cells; type: cell-based; settings: 20 μM WWL70, 20 μM AMG9810 or combination
From the text: as §2, with “streptomycin. […]” for “streptomycin.”
as §3

[9] = system: isolated CD1 mouse islets; assay: GSIS in isolated CD1 mouse islets; type: cell-based; settings: for GSIS: 20 μM WWL70 or 20 μM AMG9810 alone
From the text: as §2
(§4) For insulin secretion from rat, mouse or human islets, batches of 10 islets were washed in KRBH containing 2.8 mM glucose and 0.5% defatted BSA, and pre-incubated for 45 min in KRBH containing 2.8 mM glucose, 0.5% defatted BSA and different pharmacological agents (at indicated concentrations) or DMSO. Islets were then incubated for either 45 min or 2 h in KRBH containing various glucose concentrations or 2.8 mM glucose plus 35 mM KCl, 0.5% defatted BSA in the presence or absence of drugs (at indicated concentrations) or vehicle (DMSO). At the end of the incubation, media were collected and insulin extracted from cells or islets in acid-ethanol (1.5% HCl, 75% ethanol). Total insulin contents and media insulin concentrations were determined by radioimmunoassay using human insulin standards (Linco Research, Mo.).

[10] = system: isolated C57Bl6 mouse islets; assay: GSIS in isolated C57Bl6 mouse islets; type: cell-based; settings: for GSIS: 20 μM WWL70 or 20 μM AMG9810 alone, 2.8 and 11.1 mM glucose
From the text: as §2, §4

[11] = system: human intact islets; assay: GSIS in human intact islets; type: cell-based; settings: one donor; for GSIS: 20 μM WWL70 or 20 μM AMG9810 alone
Protocol: Human islets were obtained from the Human Islet Isolation Core of MDRC, following appropriate ethical guidelines. The donor was a […] without any known metabolic disease. Islets were hand-picked and cultured overnight before use. Both rodent and human islets were also treated with trypsin to disperse islet cells and then cultured overnight in RPMI complete medium. These overnight cultured dispersed islets cells were then used for examining the effect of various pharmacological agents.
as §4

[12] = system: rat islets; settings: lipolysis inhibition by pan-lipase inhibitors; cited from earlier work
[13] = system: CD1 mice; assay: Oral glucose tolerance test (OGTT); type: in vivo, mouse; settings: WWL70 10 mg/kg intraperitoneally 2 h prior to oral glucose 2 g/kg
Protocol: Normal CD1 mice were fasted for 4 h prior to the oral glucose tolerance test (OGTT). […] Control mice (6) were given only vehicle. After 2 h, all mice were given a oral gavage of glucose (2 g/kg of body weight), followed by blood collection from the tail vein at the indicated times. Blood glucose (glucometer; Accu-Check™, Roche Applied Science) and plasma insulin (ELISA) (insulin mouse ultrasensitive electroimmunoassay, ALPCO Diagnostics, Salem, N.H.) were measured.

[14] = system: INS832/13 cell membrane extracts; assay: 1-OG (MAG) hydrolysis by cell membrane extracts, released oleic acid by HPLC; type: biochemical; settings: 50 μM 1-oleoylglycerol, 1 h at 30° C.
Protocol: 8 μg of […] cell membrane extracts were incubated with 50 μM of MAG (1-oleoylglycerol) and the indicated inhibitors for 1 h at 30° C. Released oleic acid was measured by HPLC after Dole's extraction and derivatization with bromoacetaminophenone.

[15] = system: ABHD12; settings: cited from earlier work
[16] = system: INS 832/13 cells; assay: [1-14C]-arachidonic acid incorporation into 1-AG and 2-AG; type: cell-based
Protocol: FIG. 2A and FIG. 2B illustrate that glucose stimulates the incorporation of [1-^14C]-arachidonic acid into 1-AG and 2-AG in INS 832/13 cells. Incorporation of [1-^14C]-arachidonic acid (nmol/mg protein) is shown in function of various compounds. Results are shown for low (2 mM, 2G, white) and high (10 mM, 10G, dotted) glucose concentration. […] (n=6; *** p<0.001). Results are shown in nmol/mg protein for different cellular compounds (PL=phospholipids, 1-AG=1-monoarachidonylglycerol, 2-AG=2-monoarachidonylglycerol, NEFA=non-esterified fatty acids, 1,2-DAG=1,2-diacylglycerol, 1,3-DAG=1,3-diacylglycerol, TG=triacylglycerol).

[17] = 20 μM AMG9810, with 20 μM WWL70

Sequence of TRPV1-R (Homo sapiens, UniProt Q8NER1) (Q8NER1 whole entry): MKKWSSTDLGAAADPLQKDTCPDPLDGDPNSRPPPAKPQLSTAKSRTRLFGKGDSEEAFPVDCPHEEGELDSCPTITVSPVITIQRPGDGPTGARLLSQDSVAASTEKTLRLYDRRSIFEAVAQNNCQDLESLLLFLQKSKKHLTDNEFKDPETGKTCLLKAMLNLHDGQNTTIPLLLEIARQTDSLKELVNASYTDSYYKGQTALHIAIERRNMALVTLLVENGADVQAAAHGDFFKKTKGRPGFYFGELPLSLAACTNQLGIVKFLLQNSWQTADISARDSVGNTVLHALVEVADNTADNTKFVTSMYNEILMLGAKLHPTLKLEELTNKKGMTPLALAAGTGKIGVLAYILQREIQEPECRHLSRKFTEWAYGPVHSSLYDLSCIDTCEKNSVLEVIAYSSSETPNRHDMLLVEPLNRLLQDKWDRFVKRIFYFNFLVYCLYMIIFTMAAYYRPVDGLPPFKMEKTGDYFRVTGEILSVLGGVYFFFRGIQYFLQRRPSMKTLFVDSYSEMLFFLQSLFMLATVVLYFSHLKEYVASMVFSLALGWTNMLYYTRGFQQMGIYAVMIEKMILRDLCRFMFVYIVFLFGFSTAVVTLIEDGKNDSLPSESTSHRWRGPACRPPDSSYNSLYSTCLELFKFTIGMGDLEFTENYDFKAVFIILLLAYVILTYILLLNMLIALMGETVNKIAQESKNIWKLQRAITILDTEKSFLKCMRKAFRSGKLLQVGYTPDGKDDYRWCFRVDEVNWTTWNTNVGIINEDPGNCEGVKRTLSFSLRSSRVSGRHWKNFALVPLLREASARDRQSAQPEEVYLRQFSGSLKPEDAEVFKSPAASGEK

Compound: O=C(Oc1ccc([N+](=O)[O-])cc1)N1CCC(C(O)(c2ccc3c(c2)OCO3)c2ccc3c(c2)OCO3)CC1 [JZL184]
- glucose-stimulated insulin secretion (GSIS) [1]: no effect
- release of [U14C]-free fatty acids (FFA) [2]: no effect
- glucose incorporation into 1-monoacylglycerol (1-MAG) [2]: elevated
- glucose incorporation into 2-monoacylglycerol (2-MAG) [2]: elevated
- glucose incorporation into diacylglycerol (DAG) [2]: no effect
- glucose incorporation into triglycerides (TG) [2]: no effect
- effect on MAG lipase (MAGL) [3]: specifically inhibits MAGL

Compound: COc1cc(CNC(=O)CCCC/C=C/C(C)C)ccc1O [capsaicin]
- insulin secretion and Ca2+ influx [4]: elevate insulin secretion and Ca^2+ influx
- insulin resistance ([5]; administration of capsaicin): decrease insulin resistance
- plasma insulin levels ([5]; in vivo): elevates plasma insulin levels

Compound: O=C(NCCCCCCNC(=O)ON=C1CCCCC1)ON=C1CCCCC1 [RHC80267]
- GSIS [6]: lowered GSIS

Compound: CC(C)(C)c1ccc(/C=C/C(=O)Nc2ccc3c(c2)OCCO3)cc1 [AMG9810]
- WWL70-enhanced GSIS ([1]; 10 μM WWL70, AMG9810 at 10 μM, 1, 5, 10 mM glucose): completely antagonized the WWL70 stimulation
- KCl-stimulated insulin secretion [1]: Neither WWL70 nor AMG9810 had any effect
- GSIS, AMG9810 alone ([1]; 1, 5, 10 mM glucose, AMG9810 concentration series): dose-dependently reduces GSIS
- insulin secretion stimulated by leucine+glutamine [1]: inhibited
- WWL70-enhanced GSIS ([7]; 20 μM WWL70 + 20 μM AMG9810): antagonized
- GSIS [8]: inhibition of GSIS
- WWL70-enhanced GSIS ([9]; 20 μM WWL70 + 20 μM AMG9810): antagonized
- GSIS [9]: without significant effect on GSIS per se
- GSIS inhibition by AMG9810 (WWL70-augmented) [10, 17]: inhibition of GSIS
- GSIS [10]: without significant effect on GSIS per se
- GSIS inhibition by AMG9810 (WWL70-augmented) [11, 17]: inhibition of GSIS
- GSIS [11]: without significant effect on GSIS per se

Compound: Cc1cc(C)[nH]n1 [3,5-dimethylpyrazole]
- GSIS [12]: curtailed GSIS

Compound: CN(Cc1cccc(-c2ccncc2)c1)C(=O)Oc1ccc(-c2ccc(C(N)=O)cc2)cc1 [WWL70]
- portion of GSIS amplified by palmitate ([1]; 10 μM WWL70, glucose + palmitate): not further enhanced
- WWL70 concentration reaching near maximal enhancement of GSIS ([1]; 5 mM and 10 mM glucose): ~10 µM
- KCl-stimulated insulin secretion [1]: Neither WWL70 nor AMG9810 had any effect
- insulin secretion stimulated by leucine+glutamine [1]: enhanced
- glucose-stimulated insulin secretion (GSIS) [1]: almost doubled the GSIS; also recorded: robust increase
- decrease of FFA release (fraction) ([2]; 10 μM WWL70): about ⅔
- glucose incorporation into phospholipids ([2]; 10 μM WWL70): None of the lipase inhibitors had any significant effect
- glucose incorporation into 1-monoacylglycerol (1-MAG) [2]: elevation
- glucose incorporation into 2-monoacylglycerol (2-MAG) [2]: elevation
- glucose incorporation into diacylglycerol (DAG) [2]: Neither of the inhibitors had any effect
- glucose incorporation into triglycerides (TG) [2]: marginal effect
- GSIS ([7]; 20 μM WWL70): enhanced GSIS
- GSIS [8]: enhancement
- GSIS [9]: enhanced GSIS
- GSIS [10]: enhancement
- GSIS [11]: enhancement
- glycemia [13]: better controlled the glycemia
- plasma insulin levels [13]: significantly elevated
- 1-OG hydrolysis activity (released oleic acid) [14]: inhibited the 1-OG hydrolysis activity
- effect on MAG lipase (MAGL) [3]: no effect
- effect on ABHD12 [15]: no effect

Compound: CCCCCCCCCCC[C@@H](C[C@@H]1OC(=O)[C@H]1CCCCCC)OC(=O)[C@H](CC(C)C)NC=O [orlistat, tetrahydrolipstatin]
- insulin secretion ([1]; 100 μM orlistat, 2 and 10 mM glucose): curtails insulin secretion
- glucose-stimulated insulin secretion (GSIS) [1]: strongly inhibited GSIS
- release of [U14C]-free fatty acids (FFA) [2]: almost completely lowered this release
- glucose incorporation into phospholipids ([2]; 10 μM WWL70): None of the lipase inhibitors had any significant effect
- glucose incorporation into 1-monoacylglycerol (1-MAG) [2]: significantly lowered
- glucose incorporation into 2-monoacylglycerol (2-MAG) [2]: no effect
- glucose incorporation into diacylglycerol (DAG) [2]: Neither of the inhibitors had any effect
- glucose incorporation into triglycerides (TG) [2]: TG accumulated
- [1-14C]-arachidonic acid incorporation into 1-AG and 2-AG [16]: curtails
- 1-OG hydrolysis activity (released oleic acid) [14]: inhibited the 1-OG hydrolysis activity
- Ki [15]: < 100 nM
- GSIS [12]: curtailed GSIS
